Measurements published in patent US9492471B2, “Methods of treating a disease or disorder associated with Bruton'S Tyrosine Kinase” (Celgene Avilomics Research, Inc., priority 2013, dated 2016).
Like-named read-outs stand apart in the source and are kept apart here.

What was measured:
Experiment in all cases: HotSpot kinase profiling
Assay type in all cases: biochemical
NEK4 = molecular target: T1, NEK4 (Homo sapiens, UniProt P51957)
T1 construct: purchased Reaction Biology Corp
How it was run: (§1)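 Radiometric kinase assay with P81 filter capture; each kinase was added to fresh substrate plus cofactors in reaction buffer and incubated 2 h at room temperature. Unreacted phosphate was washed off with 0.1% phosphoric acid before detection; percent inhibition is relative to DMSO control, averaged over replicates.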

MAPKAPK3 = molecular target: T2, MAPKAPK3 (Homo sapiens, UniProt Q16644)
T2 construct: purchased Reaction Biology Corp
T2 sequence (Q16644 whole entry): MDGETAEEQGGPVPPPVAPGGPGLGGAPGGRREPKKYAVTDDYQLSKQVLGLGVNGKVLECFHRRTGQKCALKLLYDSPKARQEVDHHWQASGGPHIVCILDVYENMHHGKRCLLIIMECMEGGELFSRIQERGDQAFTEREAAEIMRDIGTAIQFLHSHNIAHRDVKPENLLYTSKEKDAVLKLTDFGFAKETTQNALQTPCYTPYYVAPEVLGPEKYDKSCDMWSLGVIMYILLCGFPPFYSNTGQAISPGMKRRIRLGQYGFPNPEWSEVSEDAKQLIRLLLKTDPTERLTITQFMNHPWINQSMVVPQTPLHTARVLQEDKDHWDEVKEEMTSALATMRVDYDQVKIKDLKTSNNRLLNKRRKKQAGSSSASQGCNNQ
How it was run: as §1

CDK2/cyclin A = molecular target: T3, CDK2/cyclin A (Homo sapiens, UniProt P24941)
T3 construct: purchased Reaction Biology Corp
How it was run: as §1

CAMK1g = molecular target: T4, CAMK1g (Homo sapiens, UniProt Q96NX5)
T4 construct: purchased Reaction Biology Corp
T4 sequence (Q96NX5 whole entry): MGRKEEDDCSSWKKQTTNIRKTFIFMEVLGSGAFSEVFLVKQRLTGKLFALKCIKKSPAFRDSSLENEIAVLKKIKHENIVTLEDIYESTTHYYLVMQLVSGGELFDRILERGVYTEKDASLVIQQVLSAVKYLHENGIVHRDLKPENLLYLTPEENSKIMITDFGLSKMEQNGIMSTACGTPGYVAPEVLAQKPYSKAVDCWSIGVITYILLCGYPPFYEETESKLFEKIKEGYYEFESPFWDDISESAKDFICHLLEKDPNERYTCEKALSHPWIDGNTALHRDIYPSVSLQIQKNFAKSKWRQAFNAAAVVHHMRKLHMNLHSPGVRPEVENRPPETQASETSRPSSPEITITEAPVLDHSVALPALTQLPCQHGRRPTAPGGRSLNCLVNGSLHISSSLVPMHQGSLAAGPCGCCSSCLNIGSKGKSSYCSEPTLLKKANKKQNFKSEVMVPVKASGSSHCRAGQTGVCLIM
How it was run: as §1

MSSK1/STK23 = molecular target: T5, MSSK1/STK23 (Homo sapiens, UniProt Q9UPE1)
T5 construct: purchased Reaction Biology Corp
T5 sequence (Q9UPE1 whole entry): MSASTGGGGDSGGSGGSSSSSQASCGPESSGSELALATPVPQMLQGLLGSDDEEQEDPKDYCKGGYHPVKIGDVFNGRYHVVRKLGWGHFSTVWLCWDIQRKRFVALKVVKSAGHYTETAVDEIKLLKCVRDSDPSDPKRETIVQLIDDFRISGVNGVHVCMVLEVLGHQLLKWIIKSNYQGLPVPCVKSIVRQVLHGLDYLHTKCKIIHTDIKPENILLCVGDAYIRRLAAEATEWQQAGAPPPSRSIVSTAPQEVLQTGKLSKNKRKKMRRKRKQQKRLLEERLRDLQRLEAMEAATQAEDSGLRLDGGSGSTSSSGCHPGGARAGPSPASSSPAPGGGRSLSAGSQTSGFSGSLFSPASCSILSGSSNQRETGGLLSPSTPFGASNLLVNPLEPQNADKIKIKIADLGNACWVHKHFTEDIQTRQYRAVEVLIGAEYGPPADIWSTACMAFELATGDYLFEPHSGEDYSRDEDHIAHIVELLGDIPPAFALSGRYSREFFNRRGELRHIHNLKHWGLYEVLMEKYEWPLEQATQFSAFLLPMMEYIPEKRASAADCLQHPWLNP
How it was run: as §1

DMPK2 = molecular target: T6, DMPK2 (Homo sapiens, UniProt Q6DT37)
T6 construct: purchased Reaction Biology Corp
T6 sequence (Q6DT37 whole entry): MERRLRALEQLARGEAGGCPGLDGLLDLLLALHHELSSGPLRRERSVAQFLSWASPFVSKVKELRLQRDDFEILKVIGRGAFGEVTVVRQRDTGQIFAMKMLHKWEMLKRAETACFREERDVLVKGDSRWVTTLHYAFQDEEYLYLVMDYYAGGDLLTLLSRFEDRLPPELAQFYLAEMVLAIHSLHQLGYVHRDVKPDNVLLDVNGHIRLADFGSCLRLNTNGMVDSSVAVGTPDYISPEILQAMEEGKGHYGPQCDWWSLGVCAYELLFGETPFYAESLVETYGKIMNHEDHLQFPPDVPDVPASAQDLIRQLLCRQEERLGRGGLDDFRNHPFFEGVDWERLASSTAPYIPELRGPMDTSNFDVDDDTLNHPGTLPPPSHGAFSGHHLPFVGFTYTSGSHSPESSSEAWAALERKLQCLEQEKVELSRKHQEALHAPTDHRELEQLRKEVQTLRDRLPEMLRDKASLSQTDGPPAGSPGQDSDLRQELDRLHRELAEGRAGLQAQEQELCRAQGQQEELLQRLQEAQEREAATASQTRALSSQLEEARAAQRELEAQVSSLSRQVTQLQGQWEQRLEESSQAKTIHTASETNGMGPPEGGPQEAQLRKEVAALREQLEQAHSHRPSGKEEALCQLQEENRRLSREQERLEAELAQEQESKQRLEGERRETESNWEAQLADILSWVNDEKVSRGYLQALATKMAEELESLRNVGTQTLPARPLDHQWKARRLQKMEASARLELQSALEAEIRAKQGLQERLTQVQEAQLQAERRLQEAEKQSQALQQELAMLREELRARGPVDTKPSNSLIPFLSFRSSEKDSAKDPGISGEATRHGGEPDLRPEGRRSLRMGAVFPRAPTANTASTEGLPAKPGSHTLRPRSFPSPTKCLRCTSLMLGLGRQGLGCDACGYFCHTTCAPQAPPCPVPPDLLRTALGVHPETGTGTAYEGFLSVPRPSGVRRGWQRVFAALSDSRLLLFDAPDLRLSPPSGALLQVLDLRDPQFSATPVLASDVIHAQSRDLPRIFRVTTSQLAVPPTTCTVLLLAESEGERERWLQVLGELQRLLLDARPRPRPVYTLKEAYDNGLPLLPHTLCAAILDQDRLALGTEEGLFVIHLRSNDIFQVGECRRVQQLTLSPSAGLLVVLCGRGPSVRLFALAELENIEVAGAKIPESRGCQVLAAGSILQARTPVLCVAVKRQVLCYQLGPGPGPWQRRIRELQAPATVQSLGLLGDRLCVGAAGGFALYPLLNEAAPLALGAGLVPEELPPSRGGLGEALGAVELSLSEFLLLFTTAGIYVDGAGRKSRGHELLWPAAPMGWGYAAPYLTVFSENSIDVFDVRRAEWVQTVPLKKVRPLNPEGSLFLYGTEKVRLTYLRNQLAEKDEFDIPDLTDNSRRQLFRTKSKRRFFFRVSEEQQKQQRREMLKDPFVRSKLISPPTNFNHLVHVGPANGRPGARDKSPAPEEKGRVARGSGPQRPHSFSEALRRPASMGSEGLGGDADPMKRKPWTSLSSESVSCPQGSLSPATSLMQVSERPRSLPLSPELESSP
How it was run: as §1

JNK2 = molecular target: T7, JNK2 (Homo sapiens, UniProt P45984)
T7 construct: purchased Reaction Biology Corp
T7 sequence (P45984 whole entry): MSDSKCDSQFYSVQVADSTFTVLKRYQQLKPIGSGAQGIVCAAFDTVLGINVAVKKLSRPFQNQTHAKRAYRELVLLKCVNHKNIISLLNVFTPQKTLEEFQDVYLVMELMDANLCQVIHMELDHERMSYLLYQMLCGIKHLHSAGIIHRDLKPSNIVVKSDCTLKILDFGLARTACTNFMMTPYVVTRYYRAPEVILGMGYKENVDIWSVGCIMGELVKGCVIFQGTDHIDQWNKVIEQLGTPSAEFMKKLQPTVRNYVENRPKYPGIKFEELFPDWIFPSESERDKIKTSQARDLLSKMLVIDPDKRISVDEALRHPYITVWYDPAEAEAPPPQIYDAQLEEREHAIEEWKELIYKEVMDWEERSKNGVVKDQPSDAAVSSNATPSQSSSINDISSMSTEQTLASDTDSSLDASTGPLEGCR
How it was run: as §1

ULK3 = molecular target: T8, ULK3 (Homo sapiens, UniProt Q6PHR2)
T8 construct: purchased Reaction Biology Corp
T8 sequence (Q6PHR2 1-472): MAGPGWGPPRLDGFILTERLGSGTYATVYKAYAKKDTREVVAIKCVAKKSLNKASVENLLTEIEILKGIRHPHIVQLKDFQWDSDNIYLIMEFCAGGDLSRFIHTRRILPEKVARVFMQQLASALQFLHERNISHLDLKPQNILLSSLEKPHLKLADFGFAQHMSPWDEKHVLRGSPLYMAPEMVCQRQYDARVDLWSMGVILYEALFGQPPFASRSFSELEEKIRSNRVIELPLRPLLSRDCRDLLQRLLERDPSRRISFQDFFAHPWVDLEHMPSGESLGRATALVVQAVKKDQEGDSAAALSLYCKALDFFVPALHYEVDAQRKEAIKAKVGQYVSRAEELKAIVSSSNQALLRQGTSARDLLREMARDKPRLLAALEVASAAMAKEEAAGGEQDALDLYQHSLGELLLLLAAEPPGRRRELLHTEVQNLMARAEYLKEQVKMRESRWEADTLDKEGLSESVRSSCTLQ
How it was run: as §1

LATS2 = molecular target: T9, LATS2 (Homo sapiens, UniProt Q9NRM7)
T9 construct: purchased Reaction Biology Corp
T9 sequence (Q9NRM7 1-1088): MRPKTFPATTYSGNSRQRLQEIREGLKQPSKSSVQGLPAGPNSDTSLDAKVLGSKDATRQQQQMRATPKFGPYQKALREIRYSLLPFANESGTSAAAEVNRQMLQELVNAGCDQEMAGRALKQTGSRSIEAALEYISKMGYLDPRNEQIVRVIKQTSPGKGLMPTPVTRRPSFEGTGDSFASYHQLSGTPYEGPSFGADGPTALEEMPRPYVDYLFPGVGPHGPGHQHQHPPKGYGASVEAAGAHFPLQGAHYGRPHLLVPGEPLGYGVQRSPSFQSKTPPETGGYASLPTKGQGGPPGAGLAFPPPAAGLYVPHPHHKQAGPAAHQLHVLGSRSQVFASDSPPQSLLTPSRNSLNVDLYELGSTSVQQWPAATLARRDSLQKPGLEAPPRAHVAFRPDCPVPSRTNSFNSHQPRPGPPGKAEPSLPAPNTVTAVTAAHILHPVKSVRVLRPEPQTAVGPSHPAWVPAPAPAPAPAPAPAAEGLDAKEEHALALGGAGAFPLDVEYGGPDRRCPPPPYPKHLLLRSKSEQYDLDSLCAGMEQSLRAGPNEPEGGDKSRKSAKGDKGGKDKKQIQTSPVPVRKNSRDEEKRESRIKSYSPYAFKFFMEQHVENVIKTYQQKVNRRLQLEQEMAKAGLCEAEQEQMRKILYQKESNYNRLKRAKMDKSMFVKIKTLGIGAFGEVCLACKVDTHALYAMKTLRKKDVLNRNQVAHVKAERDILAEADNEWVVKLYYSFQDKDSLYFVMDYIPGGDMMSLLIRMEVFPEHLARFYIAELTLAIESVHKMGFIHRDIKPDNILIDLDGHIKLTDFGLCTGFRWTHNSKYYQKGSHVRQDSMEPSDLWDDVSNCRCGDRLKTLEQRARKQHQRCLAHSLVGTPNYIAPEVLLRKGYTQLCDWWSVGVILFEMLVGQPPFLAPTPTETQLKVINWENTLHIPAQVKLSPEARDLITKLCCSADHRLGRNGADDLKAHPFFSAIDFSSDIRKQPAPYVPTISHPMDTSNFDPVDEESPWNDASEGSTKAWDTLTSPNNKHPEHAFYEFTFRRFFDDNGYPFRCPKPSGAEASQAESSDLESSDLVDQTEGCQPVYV
How it was run: as §1

CAMK2b = molecular target: T10, CAMK2b (Homo sapiens, UniProt Q13554)
T10 construct: purchased Reaction Biology Corp
T10 sequence (Q13554 whole entry): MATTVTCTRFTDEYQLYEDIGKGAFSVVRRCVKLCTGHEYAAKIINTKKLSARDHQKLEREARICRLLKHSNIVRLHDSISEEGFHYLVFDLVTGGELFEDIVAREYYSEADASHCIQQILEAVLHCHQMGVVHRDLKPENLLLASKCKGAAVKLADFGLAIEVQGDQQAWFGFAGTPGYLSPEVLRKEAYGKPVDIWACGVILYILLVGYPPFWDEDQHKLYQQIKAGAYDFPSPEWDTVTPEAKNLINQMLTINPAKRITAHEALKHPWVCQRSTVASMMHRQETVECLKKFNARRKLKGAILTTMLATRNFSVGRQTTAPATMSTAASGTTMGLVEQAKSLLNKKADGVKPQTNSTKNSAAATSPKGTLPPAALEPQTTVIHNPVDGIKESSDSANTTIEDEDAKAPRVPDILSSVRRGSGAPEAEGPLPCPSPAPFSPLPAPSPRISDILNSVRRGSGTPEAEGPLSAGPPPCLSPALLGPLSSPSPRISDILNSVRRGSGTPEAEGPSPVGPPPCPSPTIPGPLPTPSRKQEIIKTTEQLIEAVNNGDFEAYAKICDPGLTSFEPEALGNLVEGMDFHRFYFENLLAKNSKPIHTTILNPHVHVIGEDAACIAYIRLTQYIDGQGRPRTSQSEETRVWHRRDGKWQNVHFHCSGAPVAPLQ
How it was run: as §1

[1] = read-out: % Enzyme Activity (relative to DMSO controls) Run 1
[2] = read-out: % Enzyme Activity (relative to DMSO controls) Run 2

T1 sequence (P51957 whole entry): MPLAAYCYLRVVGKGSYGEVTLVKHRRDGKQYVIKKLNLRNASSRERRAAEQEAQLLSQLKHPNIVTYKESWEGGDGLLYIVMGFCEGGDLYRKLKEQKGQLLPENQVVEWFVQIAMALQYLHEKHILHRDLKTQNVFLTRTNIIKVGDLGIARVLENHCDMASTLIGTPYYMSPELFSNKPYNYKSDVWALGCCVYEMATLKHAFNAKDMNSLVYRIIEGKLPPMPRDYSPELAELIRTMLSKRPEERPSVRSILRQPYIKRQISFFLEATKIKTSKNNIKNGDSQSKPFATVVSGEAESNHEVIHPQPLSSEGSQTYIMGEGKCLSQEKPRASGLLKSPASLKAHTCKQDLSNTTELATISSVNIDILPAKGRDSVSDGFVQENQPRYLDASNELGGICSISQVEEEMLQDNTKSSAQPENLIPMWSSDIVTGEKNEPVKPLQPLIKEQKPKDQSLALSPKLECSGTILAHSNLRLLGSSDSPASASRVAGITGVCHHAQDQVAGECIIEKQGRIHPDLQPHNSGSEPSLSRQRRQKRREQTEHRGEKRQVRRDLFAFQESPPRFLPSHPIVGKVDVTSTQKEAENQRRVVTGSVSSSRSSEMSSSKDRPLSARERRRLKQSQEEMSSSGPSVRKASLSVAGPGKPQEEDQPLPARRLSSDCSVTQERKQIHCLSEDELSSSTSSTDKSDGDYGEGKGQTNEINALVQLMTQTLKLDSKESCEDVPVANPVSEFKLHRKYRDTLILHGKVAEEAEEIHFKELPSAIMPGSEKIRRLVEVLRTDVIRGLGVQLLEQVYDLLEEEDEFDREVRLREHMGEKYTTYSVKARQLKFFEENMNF

C=CC(=O)Nc1cccc(Nc2nc(Nc3ccc(OCCOC)c(F)c3)ncc2F)c1 [Compound 2]
inhibition at 3 µM (NEK4): 13.5% | remaining activity at 3 µM (NEK4; [1]): 84.6% | remaining activity at 3 µM (NEK4; [2]): 88.3% | inhibition at 3 µM (MAPKAPK3): -2.45% | remaining activity at 3 µM (MAPKAPK3; [1]): 102% | remaining activity at 3 µM (MAPKAPK3; [2]): 103% | inhibition at 3 µM (CDK2/cyclin A): 13.7% | remaining activity at 3 µM (CDK2/cyclin A; [1]): 85.8% | remaining activity at 3 µM (CDK2/cyclin A; [2]): 86.9% | inhibition at 3 µM (CAMK1g): -0.72% | remaining activity at 3 µM (CAMK1g; [1]): 100% | remaining activity at 3 µM (CAMK1g; [2]): 101% | inhibition at 3 µM (MSSK1/STK23): -6.62% | remaining activity at 3 µM (MSSK1/STK23; [1]): 108% | remaining activity at 3 µM (MSSK1/STK23; [2]): 105% | inhibition at 3 µM (DMPK2): 1.54% | remaining activity at 3 µM (DMPK2; [1]): 97.4% | remaining activity at 3 µM (DMPK2; [2]): 99.6% | inhibition at 3 µM (JNK2): 6.22% | remaining activity at 3 µM (JNK2; [1]): 92.5% | remaining activity at 3 µM (JNK2; [2]): 95.1% | inhibition at 3 µM (ULK3): 21.7% | remaining activity at 3 µM (ULK3; [1]): 79.6% | remaining activity at 3 µM (ULK3; [2]): 77% | inhibition at 3 µM (LATS2): 10.2% | remaining activity at 3 µM (LATS2; [1]): 88.4% | remaining activity at 3 µM (LATS2; [2]): 91.2% | inhibition at 3 µM (CAMK2b): 3.89% | remaining activity at 3 µM (CAMK2b; [1]): 96.4% | remaining activity at 3 µM (CAMK2b; [2]): 95.8%
